Reference: patent EP4744665A1, “COMBINATION OF POLQ INHIBITOR COMPOUND AND ANTI-CANCER THERAPEUTIC AGENT OR RADIOTHERAPY” (Simcere Zaiming Pharmaceutical Co., Ltd., priority 2023, dated 2025)

Legend:
OVCAR3 = experiment: Combined use with combination drug, matrix study, Bliss Independence model (Cell Titer Glo, 7 days); type: cell-based
Procedure: (§1) DLD-1 colorectal adenocarcinoma cells, DLD-1 BRCA2 (-/-) colorectal adenocarcinoma cells, SHP-77 human small cell lung cancer cells, NCI-H82 human small cell lung cancer cells, LNCAP prostate cancer cells, KURAMOCHI human ovarian cancer cells, A2780 human ovarian cancer cells, and NCI-H23 non-small cell lung cancer cells were cultured in a 1640 medium containing 10% fetal bovine serum. SKOV3 human ovarian cancer cells were cultured in a McCoy's 5A (modified) medium containing 10% fetal bovine serum. OVCAR3 ovarian cancer cells were cultured in a 1640 medium containing 20% fetal bovine serum and 10 µg/mL bovine insulin. MDA-MB-436 breast cancer cells (natural BRCA1 mutation) and A549 non-small cell lung cancer cells were cultured in a DMEM medium containing 10% fetal bovine serum. Capan-1 human pancreatic cancer cells (natural BRCA2 mutation) were cultured in an IMDM medium containing 20% fetal bovine serum. The cells were all cultured at 37 °C with 5% CO2. Cells at the logarithmic growth phase were available for the experiment.
(§2) 100 µL of the cell medium was added to rows A and H and columns 1 and 12 of a 96-well cell culture plate. Cultured cells were resuspended (adherent cells were digested with trypsin) and counted to give information on cell density and viability. The dilution ratio of the resuspended cells required for inoculating a fixed number of cells into 80 µL of the medium in each culture well was calculated based on the cell density information. After the resuspended cells were diluted with the corresponding medium, 80 µL of the diluted cells were transferred to columns 2-11 of rows B-G of a 96-well cell culture plate using an Eppendorf multi-channel pipette (60 wells in total for each plate). The cell culture plate was incubated overnight in an incubator at 37 °C with 5% CO2.
(§3) The test compound and the combination compound were dissolved in DMSO to give a 10 mM solution for later use. In the experiment, the compound was further diluted to the corresponding concentration according to the concentration designed in the experiment, and based on this concentration, serial gradient dilution was performed. Matrix study was performed at 8 or 7 dose concentrations of the test compound (the lowest dose concentration was 0, and other specific concentration values were shown in FIG. 1) and 7 or 8 dose concentrations of the combination compound (the lowest dose concentration was 0, and other specific concentration values were shown in FIG. 1). 10 µL of each of the diluted combination compound and test compound was added to the corresponding cell plate well, such that the final concentration of DMSO was 0.25%. The test compound and the cells were incubated in an incubator at 37 °C with 5% CO2 for another 7 days, Cell Titer Glo was added at 50 µL/well, and the luminescence value of each well was read using an Envision microplate reader.
(§4) The luminescence value of the well containing only the cell medium was taken as the background (RLUbackground, corresponding cell survival rate to be 0%), the cell well containing only 0.25% DMSO without the compound was taken as the maximum signal (RLUDMSO, corresponding cell survival rate to be 100%), and the luminescence values of the remaining wells containing cells and compounds at different concentrations were taken as RLUsample. The survival rate of each cell well was calculated as follows: Survival rate (%) = (RLUsample−RLUbackground)/(RLUDMSO−RLUbackground) × 100% [formula]
(§5) The interaction between drugs (synergistic, independent, or antagonistic) was statistically analyzed by the Bliss Independence model using Combenefit software (Bliss, C.I., Bacteriol. Rev., 1956, 20, 243-258). The model assumes that each drug acts independently. The theoretical expected action curve of the combination was calculated from the following equation: Bliss effect = effect A + effect B−effect A × effect B [formula] wherein effect A and effect B are the effects of drugs A and B alone at specific concentrations. […]

A549 = experiment: as above; type: cell-based
Procedure: as §1, §2, §3, §4, §5

NCIH23 = experiment: as above; type: cell-based
Procedure: as §1, §2, §3, §4, §5

DLD-1 BRCA2 (-/-) = experiment: as above; type: cell-based
Procedure: as §1, §2, §3, §4, §5

DLD1 = experiment: as above; type: cell-based; conditions: combination with SN38 (Topoisomerase I inhibitor)
Procedure: as §1, §2, §3, §4, §5

MDA-MB-436 = experiment: as above; type: cell-based
Procedure: as §1, §2, §3, §4, §5

[1] = tested on: human breast cancer MDA-MB-436 cells; experiment: Efficacy of combined use with olaparib in MDA-MB-436 xenograft tumor model; type: in vivo, NOD-SCID mice; conditions: 30 mg/kg QD intragastric in combination with 10 mg/kg olaparib QD
Excerpt: The anti-tumor activity of the sodium salt of compound I used in combination with olaparib (MCE, 136925) was studied using a MDA-MB-436 subcutaneous tumor model. 24 female NOD-SCID mice (6-7 weeks old, Beijing Vital River Laboratory Animal Technology Co., Ltd.) were subcutaneously inoculated with 1 × 10^7 human breast cancer MDA-MB-436 cells (natural BRCA1 mutation, Nanjing Cobioer). When the tumors grew to 80-120 mm^3, the mice were randomly divided into four groups with six mice per group: a first group treated with vehicle control (QD) by intragastric administration, a second group treated with a 30 mg/kg solution of the sodium salt of compound I (QD) by intragastric administration, a third group treated with a 10 mg/kg olaparib solution (QD) by intragastric administration, and a fourth group treated with a 30 mg/kg solution of the sodium salt of compound I (QD) by intragastric administration and a 10 mg/kg olaparib solution (QD) by intragastric administration. The vehicle of olaparib was a solution containing 10% DMSO, 50% 2-hydroxypropyl-β-cyclodextrin (Aladdin-F2223139, 60% aqueous solution), and 40% water, the vehicle of the sodium salt of compound I was 10% (w/v) Vitamin E TPGS (Hanhong Chemical-BH-GN0100619-22 1101) aqueous solution, and the vehicle of the vehicle control group was a mixture of the vehicle of olaparib and the vehicle of the sodium salt of compound I (mixed at a volume ratio of 1:1). Mice had free access to food and water throughout the experiment.
Tumor diameters were measured twice weekly using a vernier caliper. The tumor volume (V) was calculated using the following formula: V = 0.5a × b^2, wherein a and b represent the long diameter and short diameter of the tumor, respectively.
Mouse body weight was measured twice weekly.
Two way ANOVA was used to compare the differences in tumor growth trend among groups, and a significant difference was considered when p < 0.05.

[2] = combination with Niraparib (PARP inhibitor)
[3] = combination with Olaparib (PARP inhibitor)
[4] = combination with Talazoparib (PARP inhibitor)
[5] = combination with AZD5305 (PARP inhibitor)

Structure (SMILES): COc1ccc(Cl)cc1-c1cc(C)ncc1C(=O)Nc1nc2ncc(-c3ccc(C#N)cc3)nc2s1.[Na] [Sodium salt of compound I, Sodium Salt of 4-(5-Chloro-2-methoxyphenyl)-N-[6-(4-cyanophenyl)thiazolo[4,5-b]pyrazin-2-yl]-6-methylnicotinamide]
- Combined effect (OVCAR3; combination with Carboplatin (Platinum derivative)): Synergistic
- Combined effect (OVCAR3; [2]): Synergistic
- Combined effect (OVCAR3; [3]): Synergistic
- Combined effect (OVCAR3; [4]): Synergistic
- Combined effect (A549; combination with Cisplatin (Platinum derivative)): Synergistic
- Combined effect (A549; combination with Etoposide (Topoisomerase II inhibitor)): Synergistic
- Combined effect (NCIH23; combination with RP3500 (ATR inhibitor)): Synergistic
- Combined effect (NCIH23; [4]): Synergistic
- Combined effect (DLD-1 BRCA2 (-/-); [5]): Synergistic
- Combined effect (DLD-1 BRCA2 (-/-); [2]): Synergistic
- Combined effect (DLD1): Synergistic
- Combined effect (MDA-MB-436; [5]): Synergistic
- Combined effect (MDA-MB-436; combination with AZD7648 (DNA-PK inhibitor)): Synergistic
- Combined effect (MDA-MB-436; [2]): Synergistic
- Combined effect (MDA-MB-436; [3]): Synergistic
- anti-tumor effect of combination with olaparib [1]: synergistic anti-tumor effect
- tumor volume ([1]; versus either single drug group): significantly lower
- safety ([1]; condition of mice, body weight): good safety
